Experimental findings from patent US20060206946A1, “Method of disrupting heme transport in nematodes and of modelling and evaluating eukaryotic heme transport” (priority 2005, published 2006) are described below.

The test system of test [1] is C. elegans genes transcriptionally regulated by heme. The experiment in a line: Affymetrix C. elegans Genome Array: genes transcriptionally regulated by heme (4 and 500 μM vs 20 μM hemin). It is filed as in vivo, Caenorhabditis elegans. Conditions: low heme (4 μM). On the procedure:
Worms were grown at 4 μM (low) 20 μM (optimal) and 500 μM (high) hemin in axenic CeHR medium. We chose 4 and 500 μM hemin because these heme concentrations were at either end of the worm growth spectrum, and worms at these heme concentrations show a ˜24 h growth delay compared to worms grown at 20 μM hemin. […] In order to eliminate maternal effect genes, wild-type N2 worms were grown for two synchronized generations in their respective hemin concentrations to obtain F2 worms at the […] as determined by morphological analysis of the vulva. F2 worms from all three heme conditions were harvested at the same mid-L4 stage for final RNA extraction. The RNA was extracted with Trizol and treated with RNase-free DNase to remove any contaminating DNA followed by a purification on a Qiagen RNeasy column. Each experiment was performed four independent times on four separate days to ensure proper sampling and to account for experimental variations. […]
From these genes, 58 genes were excluded because they were specific to germline, sperm or oocyte development, as determined by cross-checking with publicly available microarray databases. […]
The initial statistical analysis of the Affymetrix genome array was performed at the NIDDK microarray facility using Affymetrix MAS 5.0 Suite software. […] The standard error for ΔΔCt will be calculated by the method of Livak and Schmittgen. […]

A further test has as its system R02E12.6. The test can be described thus: qRT-PCR validation of heme-regulated genes (2^-ΔΔCt method). Conditions: low heme. It is filed as in vivo, Caenorhabditis elegans. On the procedure: The initial statistical analysis of the Affymetrix genome array was performed at the NIDDK microarray facility using Affymetrix MAS 5.0 Suite software. […] To further narrow-down candidate genes, we eliminated 58 genes that are involved in worm developmental processes by comparing the data from the gene chip to the microarray data of S. Kim. See Kim, S. K. et al., Science 293, 2087-2092 (2001). […] These 280 genes were then sorted based on different categories of changes in gene expression (up, down or no change) seen in 4 μM versus 500 μM samples using 20 μM dataset as the baseline (Table XX). Protein sequence motif analysis (BLOCKS, PRINTS, Pfam), transmembrane (TM-HMM) and secondary structure predictions (ExPASy) proteomics tools are performed to identify domains and motifs within the predicted ORFs […] and the housekeeping gene Ct value: ΔCt=Ctsample−Ctreference. Relative mRNA abundance represents the difference between ΔCt values for a pair of conditions, i.e., 4 μM versus […]. Relative mRNA expression is exponential and defined by the formula [Mrna]=2^−ΔΔCt. […] The standard error for ΔΔCt will be calculated by the method of Livak and Schmittgen. […]

On to hemin chloride, for which, in test [1], the “upregulation of R02E12.6 in microarrays” value amounted to 16 fold. Besides, the “upregulation of R02E12.6 by qRT-PCR” value in the test on R02E12.6 is > 40 fold.
